How the values were obtained:
[1] = target: T1, rhesus H3 receptor (Macaca mulatta, UniProt Q865E1); assay: GTPγS radioligand binding assay, inhibition of rhesus H3 constitutive functional activity (inverse agonism); format: biochemical, rhesus monkey (Macacca Mulatta); design: concentration or dose not given beside the values; conditions: rhesus H3 cell membranes, relative to basal levels
Protocol: (§1) Rhesus H3 membranes were prepared from the Flp-In T-REx 293 Cell Line (Invitrogen) stably transfected with pcDNA5/FRT/TO (Invitrogen) containing the rhesus monkey (Macacca Mulatta) 445 amino acid H3 receptor. (Genbank #AY231164). Stably transfected cultures were amplified in tissue culture flasks by standard tissue culture methods and induced to express rhesus H3 by exposure to 500 ng/ml tetracycline (Cellgro) for 24 hours. After induction, cells were dissociated from flasks utilizing Cell Stripper (Cellgro). Cells were centrifuged (1K×g, 5 min) and pellet frozen in an ethanol-dry ice bath to disrupt cell membranes. Frozen cell pellet was re-suspended in 5 mM HEPES (pH 7.4, Invitrogen) at 10 ml/1000 cm2 of harvested cells. The cell suspension was drawn through an 18 gauge needle (2-3×) followed by a 23 gauge needle (2-3×) to further disrupt cell membranes. The cell suspension was centrifuged (40K×g, 30 min). Cell membrane pellet was re-suspended in 5 mM HEPES (pH 7.4, Invitrogen) at a final protein concentration of 10 mg/ml. Rhesus H3 membranes were stored under liquid nitrogen prior to use in [3H]-Methylhistamine and GTP S radioligand binding assays.

[2] = target: T1, rhesus H3 receptor; assay: Rhesus H3 [3H]-methylhistamine radioligand binding assay; design: species or system rhesus monkey (Macacca Mulatta); conditions: [3H]-Methylhistamine 2 nM, rhesus H3 membranes, WGA SPA beads, Cheng-Prusoff
Protocol: as §1
Rhesus H3 radioligand binding assay was performed using rhesus H3 receptor membranes (prepared as described above), [3H]-Methylhistamine (Perkin Elmer) and WGA SPA beads (wheat germ agglutinin scintillation proximity assay) beads (Amersham). The assay was performed in 96-well Opti-Plates (Packard). Each reaction contained 50 μl rhesus H3 membranes (20-30 μg total protein), 50 μl WGA SPA beads (0.1 μg) and 50 μl of 83 Ci/mmol [^3H]-Methylhistamine (final concentration 2 nM) and 50 μl of tested compound. The compounds of this invention and/or vehicle were diluted with binding buffer from 10 mM DMSO stocks. Assay plates were sealed with TopSeal (Perkin Elmer) and mixed on shaker (25° C., 1 hour). Assay plates were read on TopCount scintillation counter (Packard). Results were analyzed by Hill transformation and Ki values were determined by Cheng-Prusoff equation.

T1 sequence (Q865E1 1-445): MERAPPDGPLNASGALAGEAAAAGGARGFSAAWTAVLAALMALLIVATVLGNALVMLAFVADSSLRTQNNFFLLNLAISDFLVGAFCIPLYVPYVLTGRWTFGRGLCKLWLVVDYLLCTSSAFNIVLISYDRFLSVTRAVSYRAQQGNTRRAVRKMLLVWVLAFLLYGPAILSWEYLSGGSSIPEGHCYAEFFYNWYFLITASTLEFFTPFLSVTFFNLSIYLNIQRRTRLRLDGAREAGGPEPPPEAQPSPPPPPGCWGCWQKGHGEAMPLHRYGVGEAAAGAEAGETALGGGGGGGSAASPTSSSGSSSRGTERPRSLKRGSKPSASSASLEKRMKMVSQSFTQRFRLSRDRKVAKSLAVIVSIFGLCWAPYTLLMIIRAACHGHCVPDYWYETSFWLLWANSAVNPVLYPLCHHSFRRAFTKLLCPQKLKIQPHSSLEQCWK

| Compound | Inverse Agonism: % inhibition of Basal GTPγS binding in Rhesus H3 [1] [%] | Ki [2] [nM] |
| --- | --- | --- |
| C[C@H]1CCCN1[C@H]1CCN(c2ccc(N3CCCC4(CCN(C(=O)c5ccccc5)CC4)C3=O)cc2)C1 [Example 28, 9-Benzoyl-2-[4-((2S,3′S)-2-methyl-[1,3′]bipyrrolidinyl-1′-yl)-phenyl]-2,9-diaza-spiro[5.5]undecan-1-one] | −15 | 0.5 |
| C[C@H]1CCCN1[C@H]1CCN(c2ccc(N3CCCC4(CCN(C(=O)C5CCCCC5)CC4)C3=O)c(F)c2)C1 [Example 30, 9-Cyclohexanecarbonyl-2-[2-fluoro-4-((2S,3′S)-2-methyl-[1,3′]bipyrrolidinyl-1′-yl)-phenyl]-2,9-diaza-spiro[5.5]undecan-1-one] | −22 | 0.7 |
| C[C@H]1CCCN1C1CCN(c2ccc(N3CCC4(CCN(C(=O)C5CCCCC5)CC4)C3=O)c(F)c2)CC1 [Example 52, 8-Cyclohexanecarbonyl-2-{2-fluoro-4-[4-(2S-2-methyl-pyrrolidin-1-yl)-piperidin-1-yl]-phenyl}-2,8-diaza-spiro[4.5]decan-1-one] | −24 | 0.2 |
| COc1ccc(S(=O)(=O)N2CCC3(CCN(c4ccc(N5CC[C@H](N6CCC[C@@H]6C)C5)cc4C(F)(F)F)C3=O)CC2)cc1 [Example 65, 8-(4-Methoxy-benzenesulfonyl)-2-[4-((2S,3′S)-2-methyl-[1,3′]bipyrrolidinyl-1′-yl)-2-trifluoromethyl-phenyl]-2,8-diaza-spiro[4.5]decan-1-one] | −18 | 10.6 |
| C[C@H]1CCCCN1[C@H]1CCN(c2ccc(N3CCC4(CCN(CC5CCCCC5)CC4)C3=O)c(C(F)(F)F)c2)C1 [Example 58, 8-Cyclohexyl methyl-2-{4-[3-((2S,3′S)-2-methyl-piperidin-1-yl)-pyrrolidin-1-yl]-2-trifluoromethyl-phenyl}-2,8-diaza-spiro[4.5]decan-1-one] | −19 | 0.15 |
| COCC(=O)N1CCC2(CC1)CCN(c1ccc(N3CC[C@H](N4CCC[C@@H]4C)C3)cc1C(F)(F)F)C2=O [Example 61, 8-(2-Methoxy-acetyl)-2-[4-((2S,3′S)-2-methyl-[1,3′]bipyrrolidinyl-1′-yl)-2-trifluoromethyl-phenyl]-2,8-diaza-spiro[4.5]decan-1-one] | −7 | 193 |
| Cc1cc(N2CC[C@H](N3CCC[C@@H]3C)C2)ccc1N1CCC2(CCN(C(=O)OC(C)(C)C)CC2)C1=O [Example 4, 2-[2-Methyl-4-((2S,3′S)-2-methyl-[1,3′]bipyrrolidinyl-1′-yl)-phenyl]-1-oxo-2,8-diaza-spiro[4.5]decane-8-carboxylic acid tert-butyl ester] | −31 | 43 |
| C[C@H]1CCCCN1[C@H]1CCN(c2ccc(N3CCC4(CCN(C(=O)C5CCOCC5)CC4)C3=O)cc2)C1 [Example 54, 2-{4-[3-((2S,3′S)-2-Methyl-piperidin-1-yl)-pyrrolidin-1-yl]-phenyl}-8-(tetrahydro-pyran-4-carbonyl)-2,8-diaza-spiro[4.5]decan-1-one] | −24 | 3.3 |
| C[C@H]1CCCN1[C@H]1CCN(c2ccc(N3CCC4(CCN(C(=O)c5ccc6ccccc6c5)CC4)C3=O)c(C(F)(F)F)c2)C1 [Example 62, 2-[4-((2S,3′S)-2-Methyl-[1,3′]bipyrrolidinyl-1′-yl)-2-trifluoromethyl-phenyl]-8-(naphthalene-2-carbonyl)-2,8-diaza-spiro[4.5]decan-1-one] | −19 | 8.1 |
| Cc1cc(N2CC[C@H](N3CCC[C@@H]3C)C2)ccc1N1CCC2(CCN(CC3CCCC3)CC2)C1=O [Example 13, 8-Cyclopentylmethyl-2-[2-methyl-4-((2S,3′S)-2-methyl-[1,3′]bipyrrolidinyl-1′-l)-phenyl]-2,8-diaza-spiro[4.5]decan-1-one] | −37 | 0.8 |
| C[C@H]1CCCN1C1CCN(c2ccc(N3CCC4(CCN(C(=O)c5ccc(F)cc5)CC4)C3=O)cc2)CC1 [Example 51, 8-(4-Fluoro-benzoyl)-2-{4-[4-(2S-2-methyl-pyrrolidin-1-yl)-piperidin-1-yl]-phenyl}-2,8-diaza-spiro[4.5]decan-1-one] | −17 | 0.08 |
| Cc1cc(N2CC[C@@H](N3CCC[C@@H]3C)C2)ccc1N1CCC2(CCN(C(=O)OC(C)(C)C)CC2)C1=O [Example 3, 2-[2-Methyl-4-((2S,3′R)-2-methyl-[1,3′]bipyrrolidinyl-1′-yl)-phenyl]-1-oxo-2,8-diaza-spiro[4.5]decane-8-carboxylic acid tert-butyl ester] | −23 | 7 |
| C[C@H]1CCCN1C1CCN(c2ccc(N3CCC4(CCN(C(=O)OC(C)(C)C)CC4)C3=O)c(F)c2)CC1 [Example 40, 2-{4-[4-(2S-2-Methyl-pyrrolidin-1-yl)-piperidin-1-yl]-2-fluoro-phenyl}-1-oxo-2,8-diaza-spiro[4.5]decane-8-carboxylic acid tert-butyl ester] | −21 | – |
| C[C@H]1CCCN1C1CCN(c2ccc(N3CCC4(CCN(CC5CCCC5)CC4)C3=O)c(F)c2)CC1 [Example 57, 8-Cyclopentyl methyl-2-{2-fluoro-4-[4-(2S-2-methyl-pyrrolidin-1-yl)-piperidin-1-yl]-phenyl}-2,8-diaza-spiro[4.5]decan-1-one] | −21 | 0.1 |
| C[C@H]1CCCCN1[C@H]1CCN(c2ccc(N3CCC4(CCN(C(=O)OC(C)(C)C)CC4)C3=O)c(C(F)(F)F)c2)C1 [Example 42, 2-{4-[3-((2S,3′S)-2-Methyl-piperidin-1-yl)-pyrrolidin-1-yl]-2-trifluoromethyl-phenyl}-1-oxo-2,8-diaza-spiro[4.5]decane-8-carboxylic acid tert-butyl ester] | −15 | 64 |
| Cc1cc(N2CC[C@H](N3CCC[C@H]3C)C2)ccc1N1CCC2(CCNCC2)C1=O.Cl [Example 8, 2-[2-Methyl-4-((2R,3′S)-2-methyl-[1,3′]bipyrrolidinyl-1′-yl)-phenyl]-2,8-diaza-spiro[4.5]decan-1-one Hydrochloride] | −26 | 0.8 |
| C[C@H]1CCCN1[C@H]1CCN(c2ccc(N3CCCC4(CCN(C(=O)C5CCOCC5)CC4)C3=O)c(F)c2)C1 [Example 31, 2-[2-Fluoro-4-((2S,3′S)-2-methyl-[1,3′]bipyrrolidinyl-1′-yl)-phenyl]-9-(tetrahydro-pyran-4-carbonyl)-2,9-diaza-spiro[5.5]undecan-1-one] | −19 | 0.4 |
| Cc1cc(N2CC[C@H](N3CCC[C@@H]3C)C2)ccc1N1CCCC2(CCN(C(=O)c3ccoc3)CC2)C1=O [Example 27, 9-(Furan-3-carbonyl)-2-[2-methyl-4-((2S,3′S)-2-methyl-[1,3′]bipyrrolidinyl-1′-yl)-phenyl]-2,9-diaza-spiro[5.5]undecan-1-one] | −19 | 1.6 |
| Cc1cc(N2CC[C@@H](N3CCC[C@@H]3C)C2)ccc1N1CCC2(CCN(CC3CCCC3)CC2)C1=O [Example 12, 8-Cyclopentylmethyl-2-[2-methyl-4-((2S,3′R)-2-methyl-[1,3′]bipyrrolidinyl-1′-l)-phenyl]-2,8-diaza-spiro[4.5]decan-1-one] | −20 | 0.8 |
| Cc1cc(N2CC[C@@H](N3CCC[C@H]3C)C2)ccc1N1CCC2(CCNCC2)C1=O.Cl [Example 7, 2-[2-Methyl-4-((2R,3′R)-2-methyl-[1,3′]bipyrrolidinyl-1′-yl)-phenyl]-2,8-diaza-spiro[4.5]decan-1-one Hydrochloride] | −22 | 15 |
